In paper PMC3791449, “Mechanism of amyloid β−protein dimerization determined using single−molecule AFM force spectroscopy” (Scientific Reports, 2013):
Read-outs that look alike come from different tables or passages of the source.

Tests used:
misfolded Aβ dimers = assay: Single-molecule AFM force spectroscopy: rupture force of Aβ dimers; format: binding, human
Experimental: The cysteinyl−peptides were covalently immobilized on the tip and the surface via flexible tethers terminated with maleimide groups. […] Peptide aggregation was minimized by using a very low peptide concentration (20 nM) during the coupling reaction with the functionalized mica surface and the tips. Probing was performed by multiple approach−retraction cycles over various spots of the mica surface.
Figures 1−b1 and 1−b2 show typical force curves for non−specific and specific interactions, respectively. Specific rupture events were characterized by the appearance of the event indicated with an arrow in Fig. 1−b2. The rupture peak appears at the distance defined by the extension of the flexible linkers (polyethylene glycol, PEG and maleimide silatrane, MAS) and the segments of the peptides not involved in dimer formation (see Supplementary Methods for specifics). The force−distance curves, as shown in Fig. 1−b2, were analyzed with worm−like chain (WLC) fitting to extract parameters including the rupture force and the contour length. […] The measurements for the [VPV]Aβ40 mutant performed at similar conditions (ionic strength, loading rate, etc.) are shown in Fig. 1d. […] The rupture forces increase with increasing apparent loading rates (Supplementary Fig. S1).
All cysteinyl−Aβ peptides were synthesized using 9−fluorenylmethoxycarbonyl (FMOC) chemistry and purified by reverse phase high performance liquid chromatography (RP−HPLC). The identity and purity (usually > 97%) of the peptides were confirmed by amino acid analysis followed by mass spectrometry and RP−HPLC. Functionalization of AFM tips and mica substrates were prepared according to previously published procedures. Briefly, 20 nM Aβ monomers were immobilized on mica functionalized with aminopropyl silatrane (APS) via PEG 3400 tethers and on AFM tips through maleimide silatrane (MAS). For DFS study, the tip retraction speeds ranged from 100 nm/s to 4000 nm/s. The dwell time was set at 0.3 s when retraction speed reached 1000 nm/s and above. Force curves with rupture event were subject to WLC analysis, as shown below. [drawing 1] Rupture force distributions were fitted with a probability density function: [drawing 2] Dynamic force spectra were fitted with Bell−Evans model[21]: [drawing 3] The energy profiles were reconstructed according to previous papers, using the equation below. [drawing 4] Positions of interacting segments of Aβ monomers within dimers were estimated by subtracting from the measured contour lengths the lengths of all linkers and the distance between N−termini of monomers (see Fig. 1a). The contour length of PEG was estimated with the following equation[28]: [drawing 5] Where Lc(F) is the contour length, Ns is the average number of monomers, Lplanar is the length of monomers with planar conformation, Lhelical is the length of monomers with helical conformation, ΔG(F) is the free energy difference at zero appling force. The Ns is 77 ± 10 for 3400 Da PEG. The Lplanar and Lhelical are 3.58 Å and 2.8 Å, respectively. The ΔG(F) is fixed at 3 kBT. The contour length of PEG was thus estimated to be 22.0 ± 0.9 nm. All error bars represent SEM. Detailed methods can be found in Supplementary Information.
A 50 mM 1−(3−aminopropyl) silatrane (APS) stock solution was prepared by dissolving the APS powder in deionized (DI) water. The 1.67 mM stock solution of maleimide−polyethylene glycol−succinimidyl valerate (MAL−PEG−SVA; 3.4 kDa Laysan Bio Inc, Arab, AL) was prepared in DMSO (Sigma−Aldrich Inc.) and stored at −20°C. The 10 mM Tris (2−carboxyethyl) phosphine (TCEP) hydrochloride (Hampton Research Inc.) and the 2.94 mM solution of maleimide silatrane (MAS) were prepared in DI water and stored at −20°C. A 10 mM stock solution of β−mercaptoethanol was prepared in 10 mM sodium phosphate, pH 7.4 (“phosphate buffer”) and kept at 4°C. Unless otherwise specified, other reagents used in the experiments were of analytical grade from Sigma−Aldrich. […]

Aβ peptides = conditions: cited from earlier work
Description: Aberrant folding (misfolding) and aggregation of amyloid proteins are pathological hallmarks of a large class of neurodegenerative diseases, including Alzheimer's disease (AD) (reviewed in[1][2]). In AD, amyloid precursor proteins are sequentially cleaved by β−secretase and γ−secretase, producing the amyloid β−protein (Aβ)[3]. Aβ peptides contain several alloforms with varying sequences of amino acids, dependent on the cleavage sites of γ−secretase. […] Additional C−terminal modi ... || It is important to compare our data with the aggregation studies of similar Aβ peptide samples.

Aβ42 dimers = conditions: cited from earlier work
Description: We have developed a single−molecule atomic force microscopy (SMFS) approach enabling us to probe and characterize the interactions of the peptides and proteins in transient misfolded conformations. In this approach, the protein is end−immobilized on the AFM tip and substrate, allowing us to measure the interprotein interactions at the single−molecule level. The dynamics force spectroscopy (DFS) approach has been quite informative with respect to the lifetimes of transiently formed misfolded dimers (reviewed in[16]).

[1] = cited from earlier work
Description: Aberrant folding (misfolding) and aggregation of amyloid proteins are pathological hallmarks of a large class of neurodegenerative diseases, including Alzheimer's disease (AD) (reviewed in[1][2]). In AD, amyloid precursor proteins are sequentially cleaved by β−secretase and γ−secretase, producing the amyloid β−protein (Aβ)[3]. Aβ peptides contain several alloforms with varying sequences of amino acids, dependent on the cleavage sites of γ−secretase.

[2] = loading rates of 5000−7000 pN/s, ± SEM, total data 170 (Aβ40), 280 ([VPV]Aβ40)
[3] = Supplementary Figs. S3b-S5b, similar analysis, loading rate not given

Aβ40: alloform of human amyloid β−protein; cysteinyl−Aβ peptide, Cys residue placed at the N−terminus
most probable rupture force (misfolded Aβ dimers; loading rate 6215 pN/s, probability density function fit): 57.0 pN | most probable rupture force (misfolded Aβ dimers; [2]): 63.4 ± 3.2 pN | most probable rupture force (misfolded Aβ dimers; loading rates of 5000−7000 pN/s, ± SEM, total data 170 (Aβ40), 280 ([VPV]Aβ40), listed as Αβ40): 63.4 pN | rupture force alignment in the force versus contour length plot (misfolded Aβ dimers; scatter plot Fig. 3c, horizontal line, loading rates of 5000−7000 pN/s): ~ 60 pN | aggregation properties (Aβ peptides): similar | oligomerization pattern (Aβ peptides): rapid equilibrium with coexisting monomers, dimers, trimers, and tetramers

Aβ42: alloform of human amyloid β−protein with two additional C−terminal residues; cysteinyl−peptide
most probable rupture force (misfolded Aβ dimers; [3]): 66.2 ± 0.8 pN | segments involved in dimer formation (Aβ42 dimers; in the absence of Cu^2+ cations): formed dimers via the C−terminal segments | segments involved in dimer formation (Aβ42 dimers; with Cu^2+ cations): dimer formation involves the N−terminal segments | oligomerization pattern (Aβ peptides): prefers to form a pentamer/hexamer structure (paranucleus) | toxicity compared with other alloforms [1]: appears to be the most toxic

[VPV]Aβ42: Aβ42 with VPV substitutions (Gly33Val−Val36Pro−Gly38Val); cysteinyl−peptide
most probable rupture force (misfolded Aβ dimers; [3]): 67.9 ± 1.0 pN

[VPV]Aβ40: Aβ40 mutant with VPV substitutions (Gly33Val−Val36Pro−Gly38Val); cysteinyl−peptide
most probable rupture force, increase vs Αβ40 dimers (misfolded Aβ dimers; [VPV]Αβ40 vs Αβ40 (79.3 vs 63.4 pN), loading rates of 5000−7000 pN/s): 25% | most probable rupture force (misfolded Aβ dimers; loading rate 6068 pN/s, probability density function fit): 83.6 pN | most probable rupture force (misfolded Aβ dimers; [2]): 79.3 ± 1.5 pN | most probable rupture force (misfolded Aβ dimers; loading rates of 5000−7000 pN/s, ± SEM, total data 170 (Aβ40), 280 ([VPV]Aβ40), listed as [VPV]Αβ40): 79.3 pN | toxicity of oligomers / aggregates [1]: elevated neurotoxicity
